The assay relates to ischio-gastrocnemius conduction. As to the kind of experiment: Block of ischio-gastrocnemius conduction in narcotized rabbits. The assay is classed as in vivo. How it is done: In experiments on narcotized rabbits (chloralose, 50 mg/kg, and urethane, 500 mg/kg, given intravenously) the intravenous dose of Tercuronium that produced complete block of the ischio-gastrocnemius conduction was 0.025 ± 0.005 mcM/kg (five experiments).

`CC[N+](CC)(CC)c1ccc(-c2ccc(-c3ccc([N+](CC)(CC)CC)cc3)cc2)cc1` [Tercuronium, p,p"-bis-triethylammonio-n-terphenyl dibenzenesulphonate]: the ED100 (Oryctolagus cuniculus, narcotized rabbits, intravenous, five experiments, read-out: dose producing complete block of ischio-gastrocnemius conduction) amounted to 0.025 ± 0.005 µmol/kg. Moreover, the “restoration of muscle contraction by neostigmin” value (neostigmin 0.1 mg/kg during complete block) is “always resulted in immediate and full restoration of the muscle contraction”.
